US7419683B2, “Method of inhibiting side effects of pharmaceutical compositions containing amphiphilic vehicles or drug carrier molecules” (United States of America as Represented by the Secretary of …, priority 1998, dated 2008)

Legend:
SC5b-9 = assay: In vitro complement activation in human serum, SC5b-9 ELISA; assay type: biochemical; conditions: for C activation (serum SC5b-9), result in words: human sera, Table 1
Procedure: Non-anticoagulated blood was drawn from healthy volunteers and from cancer patients according to protocols approved, as additions to existing protocols, by the Walter Reed Army Medical Center Human Use Committee, and by the University of Southern California (USC)/Norris Cancer Center Institutional Review Board and General Clinical Research Center. […] Blood was allowed to clot at room temperature and the serum was stored at −80° C. It was thawed and kept at 4° C. before incubation with the test agents.
To assess C activation in vitro we measured the drug-induced rise of two C split products, SC5b-9 and Bb, using ELISA kits from Quidel Corp. (San Diego, Calif.). SC5b-9 is the soluble, S-protein-bound form of the terminal complex, a sensitive measure of C5a formation through both the classical and the alternative pathways, while Bb is the proteolytically active fragment of factor B, a specific marker of C activation through the alternative pathway. The test agents were incubated with the serum in a shaking water bath (80 rpm cycle) for 30 to 60 min at 37° C. at an activator to serum volume ratio of 1:5 or 1:10. […] The reaction was stopped by adding 20 volume of the specimen diluent from the ELISA kits containing PBS, 0.05% Tween-20, protein stabilizers, and 0.01% Thimerosal.

[1] = test system: liposome-induced pulmonary hypertension; assay: Inhibition of liposome-induced pulmonary hypertension (PAP) in pigs; assay type: in vivo, pig
Procedure: FIG. 12. The effects of complement inhibitors and indomethacin on liposome-induced pulmonary hypertension. Panel A presents the standard liposome-induced changes in PAP before and at different times after the administration of the indicated inhibitors, each in a different animal. […] Inhibitors were injected in the jugular vein in 4-8 mL PBS, at the following doses: GS1, 1.6 mg/kg (squares), sCR1, 0.2 mg/kg (open circles) and 2 mg/kg (closed circles); indomethacin, 5 mg/kg (triangles).
Experiments were-performed in accordance with the guidelines of the Committee on Animal Care of the Uniformed Services University of the Health Sciences and with the Guide for the Care and the Use of Laboratory Animals (Department of Health and Human Services, Publication No. [NIH] 86-23). Female Yorkshire swine (32-48 kg) were sedated with i.m. ketamine and anesthetized with halothane by nose cone. The trachea was intubated and anesthesia was maintained with halothane (1%). […] Systemic vascular resistance (SVR) and pulmonary vascular resistance (PVR) were calculated from SAP, PAP, CO, CVP and LVEDP, using standard formulas (Fontana, J. L. et al., 1995, Anesth. Analg. 80, 219) Blood pressure values and leads II and V5 of the electrocardiogram (ECG) were obtained continually.

miniature pigs = conditions: previous study; cited from earlier work
[2] = test system: Cremophor EL-induced complement activation; assay: Inhibition of Cremophor EL-induced complement activation (SC5b-9) in human serum; assay type: biochemical; conditions: Cremophor EL 8.8 mg/ml, serum of a healthy subject
Procedure: FIG. 4. Inhibition of Cremophor EL-induced complement activation by soluble complement receptor type 1 (sCR1): dose activity relationship. […] Serum levels of SC5b-9 were measured by enzyme-linked immunoasorbent assay, as described. Bars=mean values with 95% confidence interval, obtained from triplicate wells. The rise of SC5b-9 relative to PBS was statistically significant at *, P=0.0006 and **, P=0.002 (Student's two-sample t test, two-tailed).
To assess C activation in vitro we measured the drug-induced rise of two C split products, SC5b-9 and Bb, using ELISA kits from Quidel Corp. (San Diego, Calif.). SC5b-9 is the soluble, S-protein-bound form of the terminal complex, a sensitive measure of C5a formation through both the classical and the alternative pathways, while Bb is the proteolytically active fragment of factor B, a specific marker of C activation through the alternative pathway. The test agents were incubated with the serum in a shaking water bath (80 rpm cycle) for 30 to 60 min at 37° C. at an activator to serum volume ratio of 1:5 or 1:10. Typically, 5 μl of drug (stock) was added to 45 μl of serum placed in Eppendorf tubes. The reaction was stopped by adding 20 volume of the specimen diluent from the ELISA kits containing PBS, 0.05% Tween-20, protein stabilizers, and 0.01% Thimerosal.

[3] = test system: C-mediated harmful effects; conditions: in vitro; cited from earlier work
[4] = test system: LEH-induced complement activation; conditions: human serum, in vitro, cited from earlier work
[5] = pigs; cited from earlier work

CC(=O)O[C@H]1C(=O)[C@@]2(C)[C@H]([C@H](OC(=O)c3ccccc3)[C@]3(O)C[C@H](OC(=O)[C@H](O)[C@@H](NC(=O)c4ccccc4)c4ccccc4)C(C)=C1C3(C)C)[C@]1(OC(C)=O)CO[C@@H]1C[C@@H]2O [Paclitaxel, paclitaxel]
SC5b-9 (SC5b-9; paclitaxel 100 ug/mL, bar marked * in FIG. 2 (with 95% confidence interval)): 67.4 (65.8-69) ug/ml

N.N.O=C([O-])C1(C(=O)[O-])CCC1.[Pt+2] [carboplatin]
C activation (serum SC5b-9), result in words (SC5b-9): did not cause C activation
SC5b-9 (SC5b-9; subject 2 (healthy donor), dose 100 μg/ml, no ethanol): 3.4 µg/mL
SC5b-9 (SC5b-9; subject 4 (cancer patient), dose 100 μg/ml, no ethanol): 5.5 µg/mL

CC(=O)O[C@@]12CO[C@@H]1C[C@H](O)[C@@]1(C)C(=O)[C@H](O)C3=C(C)[C@@H](OC(=O)[C@H](O)[C@@H](NC(=O)OC(C)(C)C)c4ccccc4)C[C@@](O)([C@@H](OC(=O)c4ccccc4)[C@H]21)C3(C)C [docetaxel]
C activation (serum SC5b-9), result in words (SC5b-9): caused C activation only when the drug (formulated in Tween-80) was added to human serum together with ethanol
SC5b-9 (SC5b-9; subject 1 (healthy donor), dose 100 μg/ml (H2O), 30 min 37° C.): 1.8 µg/mL
SC5b-9 (SC5b-9; subject 1 (healthy donor), dose 100 μg/ml with 0.8% ethanol, 30 min 37° C.): 16.0 µg/mL
SC5b-9 (SC5b-9; subject 2 (healthy donor), dose 100 μg/ml with 0.8% ethanol): 28.6 µg/mL
SC5b-9 (SC5b-9; subject 3 (healthy donor), dose 100 μg/ml (H2O)): 0.2 µg/mL
SC5b-9 (SC5b-9; subject 4 (cancer patient), dose 100 μg/ml with 0.8% ethanol): 38.5 µg/mL

CCO [ethanol]
C activation (serum SC5b-9), result in words (SC5b-9): did not cause significant elevation of serum SC5b-9
SC5b-9 (SC5b-9; subject 2 (healthy donor), dose 0.8% (final serum concentration)): 3.2 µg/mL
SC5b-9 (SC5b-9; subject 3 (healthy donor), dose 0.4% (final serum concentration)): 0.5 µg/mL
SC5b-9 (SC5b-9; subject 4 (cancer patient), dose 0.8% (final serum concentration)): 6.6 µg/mL

COc1ccc2c(c1)c(CC(=O)O)c(C)n2C(=O)c1ccc(Cl)cc1 [indomethacin]
effect on pulmonary reaction to 5 mg liposome boluses ([1]; 5 mg/kg i.v., all tested pigs): completely suppressed
rise of PVR after liposomes with indomethacin treatment (miniature pigs): 20%

sCR1: Recombinant soluble complement receptor type 1
inhibition of PAP response to 5 mg liposome boluses ([1]; 0.2 and 2 mg/kg i.v. (in 2-2 pigs), maximal inhibition): 30-100%
dose providing complete suppression of Cremophor EL/ethanol-induced increase of SC5b-9 [2]: 1.8 µg/mL
doses significantly inhibiting Cremophor EL/ethanol-induced increase of SC5b-9 [2]: > 0.6 µg/mL
concentration range of potent inhibition of C-mediated harmful effects [3]: 10 to 40 µg/mL
dose providing complete suppression of SC5b-9 formation ([4]; LEH-induced): 20 µg/mL
doses significantly inhibiting LEH-induced complement activation [4]: > 0.8 µg/mL
plasma clearance α-phase t1/2 [5]: 8.3 min
plasma clearance β-phase t1/2 [5]: 6.05 h
share of the drug clearing slowly [5]: 31%
